Assay results reported in ChEMBL document CHEMBL1126199, “(R)-(-)- and (S)-(+)-adenallene: synthesis, absolute configuration, enantioselectivity of antiretroviral effect, and enzymic deamination” (J Med Chem, 1992).
pIC50: −log10 of the molar value.

System: Human immunodeficiency virus 1
Experiment: Compound was tested for inhibition of HIV-1
Type: functional, organism-based

Row | pIC50 | Compound
1 | 4.85 | Nc1ncnc2c1ncn2C=C=CCO (stereo in doubt; 1a)
2 | 5.24 | Nc1ncnc2c1ncn2C=C=CCO (stereo in doubt; 2)
3 | < 3.70 | Nc1ncnc2c1ncn2C=C=CCO (stereo in doubt; 3)
